In patent publication US10738070B2, “Mannose-derived antagonists of FimH useful for treating disease” (Fimbrion Therapeutics, Inc., priority 2016, dated 2020):

Molecular target: T1, FimH (Escherichia coli, UniProt Q1R2J4)
T1 construct: endogenous in cells; host or cells: E. coli UTI89 bacteria
Test: Hemagglutination inhibition (HAI) assay with UTI89 bacteria and guinea pig red blood cells
Format: cell-based
Settings: concentration reducing bacterial agglutination of guinea pig red blood cells by greater than 90%; UTI89 bacteria
Protocol: “HAI or EC>90” is that concentration of the FimH inhibitor/antagonist which reduces the bacterial agglutination of guinea pig red blood cells by greater than 90%.
HAI Assay The hemagglutination inhibition (HAI) assay was performed with UTI89 bacteria and guinea pig red blood cells, as previously described (S. J. Hultgren, W. R. Schwan, A. J. Schaeffer, J. L. Duncan Infect. Immun. 1986, 54, 613-620). Compounds not listed were not tested.

SMILES	HAI titer EC>90
Cc1cc(Oc2cccc(C#N)c2)c([N+](=O)[O-])cc1O[C@H]1O[C@H](CO)[C@@H](O)[C@H](O)[C@@H]1O [Example 1, 3-[4-(α-D-mannopyranosyloxy)-5-methyl-2-nitrophenoxy]benzonitrile]	0.125 µM
Cc1cc(-n2cc(-c3ccccn3)nn2)ccc1O[C@H]1O[C@H](CO)[C@@H](O)[C@H](O)[C@@H]1O [Example 3, 2-methyl-4-[4-(pyridin-2-yl)-1H-1,2,3-triazol-1-yl]phenyl α-D-mannopyranoside]	0.062 µM
Cc1cc(-n2cc(-c3cccc(C(=O)O)c3)nn2)ccc1O[C@H]1O[C@H](CO)[C@@H](O)[C@H](O)[C@@H]1O [Example 5, 2-methyl-4-[4-(3-carboxyphenyl)-1H-1,2,3-triazol-1-yl]phenyl α-D-mannopyranoside]	0.062 µM
Cc1cc(-c2ccnc(Cl)c2)ccc1OC1OC(CO)C(O)C(O)C1O [Example 6a, 4-(2′-chloropyrid-4′-yl)-2-methylphenyl α-D-mannopyranoside]	0.062 µM
Cc1cc(-c2ccnc(-c3ccnc(Cl)c3)c2)ccc1OC1OC(CO)C(O)C(O)C1O [Example 6b, 4-[2′-(2″-chloropyrid-4″-yl)-pyrid-4′-yl]-2-methylphenyl α-D-mannopyranoside]	0.062 µM
Cc1cc(-c2cccc(C(=O)N3CCOCC3)c2)ccc1O[C@H]1O[C@H](CO)[C@@H](O)[C@H](O)[C@@H]1O [Example 7, 3-methyl-3′-(morpholin-4-ylcarbonyl)biphenyl-4-yl α-D-mannopyranoside]	0.25 µM
Cc1cc(-c2cccc(C(=O)N3CCNCC3)c2)ccc1O[C@H]1O[C@H](CO)[C@@H](O)[C@H](O)[C@@H]1O [Example 8, 3-methyl-3′-(piperazin-1-ylcarbonyl)biphenyl-4-yl α-D-mannopyranoside]	0.25 µM
Cc1cc(-c2cncc(C(=O)NC(C)C)c2)ccc1O[C@H]1O[C@H](CO)[C@@H](O)[C@H](O)[C@@H]1O [Example 9, 5-[4′-(α-D-mannopyranosyloxy)-3′-methylphenyl]-N-isopropyl-3-pyridinecarboxamide]	0.032 µM
Cc1cc(-c2cccc(C(=O)NCCCCCCNC(=O)CCCCC[N+]3=C(/C=C/C=C/C=C4/c5ccc6ccccc6c5C(C)(C)N4C)C(C)(C)c4ccc5ccccc5c43)c2)ccc1OC1OC(CO)C(O)C(O)C1O.[Cl-] [Example 10, N-(Cyanine5.5)-4′-(α-D-mannopyranosyl)-3′-methyl-[1,1′biphenyl]-3-carboxamide chloride]	16 µM
COC(=O)c1cncc(-c2ccc(O[C@H]3O[C@H](CO)[C@@H](O)[C@H](O)[C@@H]3O)c(C)c2)c1 [Example 11, 5-[4′-(α-D-mannopyranosyloxy)-3′-methylphenyl]-3-pyridinecarboxylic acid methyl ester]	0.032 µM
Cc1cc(-c2ccc3[nH]nc(C)c3c2)ccc1O[C@H]1O[C@H](CO)[C@@H](O)[C@H](O)[C@@H]1O [Example 12, 3-Methyl-5-[4′-(α-D-mannopyranosyloxy) 3′-methylphenyl]-1H-indazole]	0.062 µM
Cc1cc(-c2ccc3[nH]nc(N)c3c2)ccc1O[C@H]1O[C@H](CO)[C@@H](O)[C@H](O)[C@@H]1O [Example 13, 5-[4′-(α-D-mannopyranosyloxy)-3′-methylphenyl]-1H-indazol-3-amine]	0.125 µM
Cc1cc(-c2cccc3cnccc23)ccc1O[C@H]1O[C@H](CO)[C@@H](O)[C@H](O)[C@@H]1O [Example 15, 5-[4′-(α-D-mannopyranosyloxy)-3′-methylphenyl]-isoquinoline]	0.062 µM
Cc1cc(-c2cccc3c(=O)[nH]ccc23)ccc1O[C@H]1O[C@H](CO)[C@@H](O)[C@H](O)[C@@H]1O [Example 16, 5-[4′-(α-D-mannopyranosyloxy)-3′-methylphenyl]-1(2H)-isoquinolinone]	0.125 µM
